Measurements from PubChem BioAssay (NCI).
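Method: 48-hour compound exposure of cells in 96-well plates, five concentrations, linear interpolation of endpoints. GI50 = concentration required for 50% inhibition of growth. The concentration for full growth arrest is given as TGI.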

What was measured:
Experiment in all cases: DTP human tumour cell line panel, 48 h
UACC-257 melanoma = tested on: UACC-257 melanoma
HOP-92 NSCLC = tested on: HOP-92 NSCLC
SNB-75 CNS = tested on: SNB-75 CNS
CCRF-CEM leukemia = tested on: CCRF-CEM leukemia
A549 NSCLC = tested on: A549 NSCLC
HS 578T breast = tested on: HS 578T breast
OVCAR-5 ovarian = tested on: OVCAR-5 ovarian
T-47D breast = tested on: T-47D breast
EKVX NSCLC = tested on: EKVX NSCLC
RPMI-8226 leukemia = tested on: RPMI-8226 leukemia
BT-549 breast = tested on: BT-549 breast
DU-145 prostate = tested on: DU-145 prostate
UO-31 renal = tested on: UO-31 renal
U251 CNS = tested on: U251 CNS
NCI-H226 lung = tested on: NCI-H226 lung
PC-3 prostate = tested on: PC-3 prostate
NCI-H23 lung = tested on: NCI-H23 lung
K-562 leukemia = tested on: K-562 leukemia
MALME-3M melanoma = tested on: MALME-3M melanoma
MDA-MB-468 breast = tested on: MDA-MB-468 breast
MDA-MB-435 = tested on: MDA-MB-435
SR leukemia = tested on: SR leukemia
TK-10 renal = tested on: TK-10 renal
MDA-MB-231 breast = tested on: MDA-MB-231 breast
NCI-H522 lung = tested on: NCI-H522 lung
SK-MEL-28 melanoma = tested on: SK-MEL-28 melanoma
SF-295 CNS = tested on: SF-295 CNS
HT29 colon = tested on: HT29 colon
RXF 393 renal = tested on: RXF 393 renal
MCF7 breast = tested on: MCF7 breast
UACC-62 melanoma = tested on: UACC-62 melanoma
NCI-H460 lung = tested on: NCI-H460 lung
SK-MEL-5 melanoma = tested on: SK-MEL-5 melanoma
CAKI-1 renal = tested on: CAKI-1 renal
COLO 205 colon = tested on: COLO 205 colon
SF-268 CNS = tested on: SF-268 CNS
KM12 colon = tested on: KM12 colon
SW-620 colon = tested on: SW-620 colon
SK-OV-3 ovarian = tested on: SK-OV-3 ovarian
ACHN renal = tested on: ACHN renal
HCC-2998 colon = tested on: HCC-2998 colon
OVCAR-8 ovarian = tested on: OVCAR-8 ovarian
786-0 renal = tested on: 786-0 renal
OVCAR-4 ovarian = tested on: OVCAR-4 ovarian
M14 melanoma = tested on: M14 melanoma
HOP-62 NSCLC = tested on: HOP-62 NSCLC
HCT-116 colon = tested on: HCT-116 colon
SNB-19 CNS = tested on: SNB-19 CNS
LOX IMVI melanoma = tested on: LOX IMVI melanoma
HL-60(TB) leukemia = tested on: HL-60(TB) leukemia
HCT-15 colon = tested on: HCT-15 colon
SN12C renal = tested on: SN12C renal
IGROV1 ovarian = tested on: IGROV1 ovarian
A498 renal = tested on: A498 renal
SF-539 CNS = tested on: SF-539 CNS
MOLT-4 leukemia = tested on: MOLT-4 leukemia
SK-MEL-2 melanoma = tested on: SK-MEL-2 melanoma
NCI/ADR-RES ovarian = tested on: NCI/ADR-RES ovarian
OVCAR-3 ovarian = tested on: OVCAR-3 ovarian

SMILES: COc1ccc2[nH]cc(/C=N/Nc3ccc(Br)cn3)c2c1
- GI50 (UACC-257 melanoma): 25.1 µM
- TGI (UACC-257 melanoma): > 100 µM
- GI50 (HOP-92 NSCLC): 2220 nM
- TGI (HOP-92 NSCLC): 19.3 µM
- GI50 (SNB-75 CNS): 286 nM
- TGI (SNB-75 CNS): 55.1 µM
- GI50 (CCRF-CEM leukemia): 466 nM
- TGI (CCRF-CEM leukemia): 41 µM
- GI50 (A549 NSCLC): 8.12 µM
- TGI (A549 NSCLC): > 100 µM
- GI50 (HS 578T breast): 6.91 µM
- TGI (HS 578T breast): 68.2 µM
- GI50 (OVCAR-5 ovarian): 4.17 µM
- TGI (OVCAR-5 ovarian): 79.4 µM
- GI50 (T-47D breast): 3.22 µM
- TGI (T-47D breast): > 100 µM
- GI50 (EKVX NSCLC): 2710 nM
- TGI (EKVX NSCLC): > 100 µM
- GI50 (RPMI-8226 leukemia): 1620 nM
- TGI (RPMI-8226 leukemia): 9.07 µM
- GI50 (BT-549 breast): 176 nM
- TGI (BT-549 breast): > 100 µM
- GI50 (DU-145 prostate): 13.3 µM
- TGI (DU-145 prostate): > 100 µM
- GI50 (UO-31 renal): 1090 nM
- TGI (UO-31 renal): > 100 µM
- GI50 (U251 CNS): 15.9 µM
- TGI (U251 CNS): > 100 µM
- GI50 (NCI-H226 lung): 2020 nM
- TGI (NCI-H226 lung): > 100 µM
- GI50 (PC-3 prostate): 2550 nM
- TGI (PC-3 prostate): > 100 µM
- GI50 (NCI-H23 lung): 11.6 µM
- TGI (NCI-H23 lung): > 100 µM
- GI50 (K-562 leukemia): 2940 nM
- TGI (K-562 leukemia): > 100 µM
- GI50 (MALME-3M melanoma): 82.7 µM
- TGI (MALME-3M melanoma): > 100 µM
- GI50 (MDA-MB-468 breast): 1740 nM
- TGI (MDA-MB-468 breast): 6.4 µM
- GI50 (MDA-MB-435): 6.73 µM
- TGI (MDA-MB-435): > 100 µM
- GI50 (SR leukemia): 4.8 µM
- TGI (SR leukemia): 58.3 µM
- GI50 (TK-10 renal): 18.6 µM
- TGI (TK-10 renal): > 100 µM
- GI50 (MDA-MB-231 breast): 1930 nM
- TGI (MDA-MB-231 breast): 8.71 µM
- GI50 (NCI-H522 lung): 3.11 µM
- TGI (NCI-H522 lung): 33.5 µM
- GI50 (SK-MEL-28 melanoma): 29.1 µM
- TGI (SK-MEL-28 melanoma): > 100 µM
- GI50 (SF-295 CNS): 9.13 µM
- TGI (SF-295 CNS): 48.4 µM
- GI50 (HT29 colon): 8.77 µM
- TGI (HT29 colon): > 100 µM
- GI50 (RXF 393 renal): 2090 nM
- TGI (RXF 393 renal): 31.5 µM
- GI50 (MCF7 breast): 1700 nM
- TGI (MCF7 breast): > 100 µM
- GI50 (UACC-62 melanoma): 8.45 µM
- TGI (UACC-62 melanoma): > 100 µM
- GI50 (NCI-H460 lung): 7.68 µM
- TGI (NCI-H460 lung): > 100 µM
- GI50 (SK-MEL-5 melanoma): 7.41 µM
- TGI (SK-MEL-5 melanoma): 25.3 µM
- GI50 (CAKI-1 renal): 3.01 µM
- TGI (CAKI-1 renal): > 100 µM
- GI50 (COLO 205 colon): 15.7 µM
- TGI (COLO 205 colon): 67.9 µM
- GI50 (SF-268 CNS): 5.23 µM
- TGI (SF-268 CNS): > 100 µM
- GI50 (KM12 colon): 2710 nM
- TGI (KM12 colon): 24.7 µM
- GI50 (SW-620 colon): 15.7 µM
- TGI (SW-620 colon): > 100 µM
- GI50 (SK-OV-3 ovarian): 6.19 µM
- TGI (SK-OV-3 ovarian): > 100 µM
- GI50 (ACHN renal): 7.76 µM
- TGI (ACHN renal): > 100 µM
- GI50 (HCC-2998 colon): 5.74 µM
- TGI (HCC-2998 colon): 32.5 µM
- GI50 (OVCAR-8 ovarian): 20.8 µM
- TGI (OVCAR-8 ovarian): > 100 µM
- GI50 (786-0 renal): 12.6 µM
- TGI (786-0 renal): 40.1 µM
- GI50 (OVCAR-4 ovarian): 43.2 µM
- TGI (OVCAR-4 ovarian): > 100 µM
- GI50 (M14 melanoma): 7.27 µM
- TGI (M14 melanoma): > 100 µM
- GI50 (HOP-62 NSCLC): 10.1 µM
- TGI (HOP-62 NSCLC): > 100 µM
- GI50 (HCT-116 colon): 5.97 µM
- TGI (HCT-116 colon): > 100 µM
- GI50 (SNB-19 CNS): 20.7 µM
- TGI (SNB-19 CNS): > 100 µM
- GI50 (LOX IMVI melanoma): 3.4 µM
- TGI (LOX IMVI melanoma): 24.7 µM
- GI50 (HL-60(TB) leukemia): 2540 nM
- TGI (HL-60(TB) leukemia): 28.3 µM
- GI50 (HCT-15 colon): 4.46 µM
- TGI (HCT-15 colon): > 100 µM
- GI50 (SN12C renal): 2380 nM
- TGI (SN12C renal): 65.9 µM
- GI50 (IGROV1 ovarian): 634 nM
- TGI (IGROV1 ovarian): 6.41 µM
- GI50 (A498 renal): 20.5 µM
- TGI (A498 renal): 61.7 µM
- GI50 (SF-539 CNS): 2650 nM
- TGI (SF-539 CNS): 37.3 µM
- GI50 (MOLT-4 leukemia): 2850 nM
- TGI (MOLT-4 leukemia): > 100 µM
- GI50 (SK-MEL-2 melanoma): 21.4 µM
- TGI (SK-MEL-2 melanoma): 81.8 µM
- GI50 (NCI/ADR-RES ovarian): 5.33 µM
- TGI (NCI/ADR-RES ovarian): > 100 µM
- GI50 (OVCAR-3 ovarian): 11.6 µM
- TGI (OVCAR-3 ovarian): > 100 µM
